According to patent publication US12486253B2, “Therapeutics for the degradation of mutant BRAF” (C4 THERAPEUTICS, INC., priority 2021, dated 2025):
Entries after “also recorded” stand apart in the source; their conditions may differ.

Experiments:
HCT-116 = HCT-116 cell growth; type: cell-based; settings: HCT-116, mutant KRAS driven, WT BRAF
A375 tumors = assay: In vivo efficacy in A375 xenografts; set-up: species or system BALB/c nude mice
phospho-ERK (T202/Y204) = assay: HTRF phospho-ERK (T202/Y204) inhibition assay in A375 cells; type: cell-based; settings: Homo sapiens, A-375, 24 hrs, mean of at least n = 3, read-out: pERK IC50
Procedure: A375 (harboring BRAF homozygous V600E mutation) were purchased from ATCC. DMEM Medium without phenol red and supplemented with L-glutamine was purchased from Corning (Corning, NY, USA). Advanced phospho-ERK (Thr202/Tyr204) HTRF assay kits were purchased from Cisbio (Bedford, MA, USA). Cell culture flasks and 384-well microplates were acquired from VWR (Radnor, PA, USA) or Corning (Corning, NY, USA).
Degradation of activated phospho-ERK (T202/Y204) protein was determined based on quantification of FRET signal using the Advanced phospho-ERK (T202/Y204) HTRF assay kit. Test compounds were added to the 384-well plate from a top concentration of 10 μM with 11 points, half log titration in duplicates. A375 cells were added into 384-well plates at a cell density of 8000 cells per well, respectively. The plates were kept at 37° C. with 5% CO2 for 24 hours. Cells treated in the absence of the test compound were the negative control. Positive control was set by wells containing all reagents but no cells. FRET signal was acquired on EnVision™ Multilabel Reader (PerkinElmer, Santa Clara, CA, USA).

[1] = target: BRAF V600E, test compound and CRBN ternary complex (Homo sapiens, UniProt P15056+Q96SW2, V600E); assay: AlphaLISA ternary complex formation assay; type: binding; settings: GST-BRAF V600E 16 nM, His-CRBN 64 nM
Procedure: Formation of the ternary complex between BRAF V600E, test compound and CRBN was quantified using AlphaLISA® assay. GST-tagged BRAF V600E and His-tagged CRBN were labeled with a donor/acceptor AlphaLISA® pair, and complex formation was monitored via a change in the Alpha-signal. Signal from the control wells was used as a normalization control.
Characterization of the ternary complex formation between GST-BRAF V600E, Compound 157 and his-CRBN was carried out using an AlphaLISA® assay. Compounds were dispensed from serially diluted DMSO stock in low dead volume plates into gray 384-well AlphaPlates using acoustic technology to 1% of total reaction volume. Compounds were arranged vertically in rows A through P. Concentration series were horizontal: columns 1-11, and then duplicates in columns 12-22.
Excitation of the donor beads results in generation of singlet oxygen molecules. […]
A 10 μL mixture containing 16 nM of BRAF V600E and 64 nM of CRBN in 50 mM HEPES (pH 7.4), 200 mM NaCl, 1 mM TCEP, 0.05% Pluronic Acid, 0.1% BSA was added to the wells containing test compounds (columns 1-22) and the negative control wells (column 23). […] Plates were then read on an Envision plate reader with an appropriate AlphaLISA® filter set.

Chain of BRAF V600E, test compound and CRBN ternary complex (P15056 whole entry V600E): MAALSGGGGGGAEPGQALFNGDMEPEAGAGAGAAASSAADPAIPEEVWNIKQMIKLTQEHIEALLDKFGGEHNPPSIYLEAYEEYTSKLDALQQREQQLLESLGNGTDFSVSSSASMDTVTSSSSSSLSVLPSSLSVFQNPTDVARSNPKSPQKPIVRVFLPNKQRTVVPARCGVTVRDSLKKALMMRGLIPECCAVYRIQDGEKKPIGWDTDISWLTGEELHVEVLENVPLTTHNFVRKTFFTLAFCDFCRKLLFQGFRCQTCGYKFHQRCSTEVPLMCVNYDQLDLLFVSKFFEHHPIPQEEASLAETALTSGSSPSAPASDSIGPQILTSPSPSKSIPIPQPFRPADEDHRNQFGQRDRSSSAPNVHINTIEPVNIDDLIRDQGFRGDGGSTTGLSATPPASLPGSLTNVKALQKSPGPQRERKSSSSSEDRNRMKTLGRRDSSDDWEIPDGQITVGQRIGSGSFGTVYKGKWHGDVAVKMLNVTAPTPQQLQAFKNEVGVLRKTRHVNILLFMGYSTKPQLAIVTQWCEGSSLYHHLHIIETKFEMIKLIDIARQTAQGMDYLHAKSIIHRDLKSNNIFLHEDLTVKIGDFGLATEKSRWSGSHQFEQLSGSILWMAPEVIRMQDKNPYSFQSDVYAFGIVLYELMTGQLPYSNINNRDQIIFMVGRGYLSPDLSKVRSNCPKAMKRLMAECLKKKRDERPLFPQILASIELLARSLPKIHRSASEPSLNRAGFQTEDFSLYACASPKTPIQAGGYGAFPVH
Chain of BRAF V600E, test compound and CRBN ternary complex (Q96SW2 whole entry): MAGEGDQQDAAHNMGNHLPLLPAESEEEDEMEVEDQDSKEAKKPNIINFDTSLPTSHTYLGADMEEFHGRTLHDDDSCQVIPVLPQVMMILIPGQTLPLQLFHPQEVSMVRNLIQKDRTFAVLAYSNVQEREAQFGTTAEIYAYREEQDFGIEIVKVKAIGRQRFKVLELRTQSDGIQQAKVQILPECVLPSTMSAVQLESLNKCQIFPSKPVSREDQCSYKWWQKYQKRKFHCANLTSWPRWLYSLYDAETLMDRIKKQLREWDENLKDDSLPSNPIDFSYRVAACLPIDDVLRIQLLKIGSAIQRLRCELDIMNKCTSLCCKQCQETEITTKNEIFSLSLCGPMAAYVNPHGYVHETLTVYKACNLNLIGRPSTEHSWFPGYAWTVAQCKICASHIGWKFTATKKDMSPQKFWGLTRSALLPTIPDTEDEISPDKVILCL

In the case of `CCN(C)S(=O)(=O)Nc1ccc(F)c(Oc2ccc3ncn([C@H]4COC5(CCN(C(=O)CC6(O)CCN(c7cc8c(cc7F)c(N7CCC(=O)NC7=O)nn8C)CC6)CC5)C4)c(=O)c3c2)c1C#N` [Compound 157, (3R)-3-[6-[2-cyano-3-[[ethyl(methyl)sulfamoyl]amino]-6-fluorophenoxy]-4-oxoquinazolin-3-yl]-8-[2-[1-[3-(2,4-dioxo-1,3-diazinan-1-yl)-5-fluoro-1-methylindazol-6-yl]-4-hydroxypiperidin-4-yl]acetyl]-1-oxa-8-azaspiro[4.5]decane], the “effect on cell growth” value (HCT-116) is reported as “no effect; also recorded: no impact on cell growth”, the “efficacy compared with encorafenib” value (A375 tumors; oral delivery) is reported as “more efficacious than a clinically relevant dose of encorafenib” and the tumor response (A375 tumors; oral, 10 mg/kg BID) is reported as “profound tumor regressions”. The IC50 (phospho-ERK (T202/Y204)) was 3.2 nM and the “Ternary complex formation (concentration dependence)” value [1] was “characteristic bell-shaped curve”.
